Assay results reported in patent US20240208937A1, “Compounds and Their Use for Treatment of Hemoglobinopathies” (Bristol-Myers Squibb Company, priority 2022, published 2024).

Legend:
Assay type in all cases: cell-based
[1] = tested on: fetal hemoglobin (HbF) in GCSF-mobilized human CD34+ cells; assay: HbF Induction Assay; details: 168 h; compound 1 μM, 7 days, erythroid-differentiated human CD34+ cells, flow cytometry; DMSO baseline 15% HbF positive cells
Procedure: The expansion, differentiation, and maturation of GCSF-mobilized human CD34^+ (STEMCELL Technologies Inc.) cells towards erythroid lineage cells were performed using a two-phase liquid culture model (Moutouh-de Parseval L A, el al. Pomalidomide and lenalidomide regulate erythropoiesis and fetal hemoglobin production in human CD34+ cells. J Clin Invest. 2008 January; 118(1):248-58). In the first phase, GCSF-mobilized human CD34^+ cells were cultured using StemSpan™-XF (STEMCELL Technologies Inc.) media supplemented with 1×BIT 9500, Penicillin-Streptomycin (50 U/mL), 100 ng/mL recombinant human (rh) SCF, 100 ng/mL rh Flt3-L, 20 ng/mL rh IL-3 and 10 ng/mL rh EPO and the growth of cells maintained in exponential phase for 7 days at 37° C. with 5% CO2 to support expansion and progenitor differentiation prior the second phase and treatment with compounds. In the second phase, culture media was changed to StemSpan™-XF media supplemented with 1×BIT 9500, Penicillin-Streptomycin (50 U/mL), 50 ng/mL rh SCF and 40 ng/mL rh EPO to promote further differentiation and maturation of the erythrocytes and to initiate treatment with compounds. Compounds were dispensed in duplicate at a final concentration of 1 μM in a final DMSO amount of 0.1%. Fresh compound was reapplied, and cell density was kept constant every 2 days. After 7 days, the cells were assessed for viability and fetal hemoglobin expression using flow cytometry. For viability analysis, eBioscience™ Fixable Viability Dye eFluor™ 780 (1:1000, eBioscience; Cat #65-0865-14) was added to the cells and kept in the dark for 10 minutes. For analysis of fetal hemoglobin (HbF), cells were fixed and permeabilized using Fixation Buffer (BioLegend; Cat #420801 and Intracellular staining permeabilization buffer (BioLegend, Cat #420201) following manufacturer's instructions. During permeabilization step, cells were stained with PE-labelled Mouse Anti-Human Fetal Hemoglobin (1:10, clone 2D12; BD Biosciences, Cat #BDB560041) incubated at room temperature for 20 minutes and protected from light. PE-labelled Mouse anti-IgG k, (1:10 clone MOPC-21; BD Biosciences, Cat# BDB551436) was used as an isotype control.
Viability, cell count, and fetal hemoglobin (HbF) levels were measured using an Attune NXT flow cytometer (Thermofisher) and the data analyzed using the FCS express software (De Novo Software). In Table 1 below, the effects of compounds of formula (I), formula (I′), formula (II), formula (II′), and formula (III) on % viable cells, viable cell count, on the % HbF positive cells and the median fluorescent intensity (MFI) of the HbF positive cell population compared to the DMSO controls can be viewed. All gates were set using the isotype negative control. The baseline % HbF positive cells for DMSO-treated control cells was 15%. Compounds of formula (I), formula (I′), formula (II), formula (II′), and formula (III) having HbF induction between 66% and 100% are level A. Compounds of formula (I), formula (I′), formula (II), formula (II′), and formula (III) having HbF induction between 33% and 66% are level B. Compounds of formula (I), formula (I′), formula (II), formula (II′), and formula (III) having HbF induction % less than 33% are level C. For certain compounds of formula (I), formula (I′), formula (II), formula (II′), and formula (III) % HbF induction values 0-33% (activity level C), between 33% and 66% (activity level B), and between 67% and 100% (activity level A) are shown in Table 2 below.

[2] = biological target: WIZ (Widely interspaced zinc finger) (Homo sapiens (Human), UniProt O95785+Q96SW2); assay: HUDEP-2 WIZ HiBiT degradation assay; details: HUDEP-2 WIZ HiBiT cells, 24 hours treatment, luminescence; for DC50: read-out: WIZ EC50
WIZ (Widely interspaced zinc finger), sequence (O95785 whole entry): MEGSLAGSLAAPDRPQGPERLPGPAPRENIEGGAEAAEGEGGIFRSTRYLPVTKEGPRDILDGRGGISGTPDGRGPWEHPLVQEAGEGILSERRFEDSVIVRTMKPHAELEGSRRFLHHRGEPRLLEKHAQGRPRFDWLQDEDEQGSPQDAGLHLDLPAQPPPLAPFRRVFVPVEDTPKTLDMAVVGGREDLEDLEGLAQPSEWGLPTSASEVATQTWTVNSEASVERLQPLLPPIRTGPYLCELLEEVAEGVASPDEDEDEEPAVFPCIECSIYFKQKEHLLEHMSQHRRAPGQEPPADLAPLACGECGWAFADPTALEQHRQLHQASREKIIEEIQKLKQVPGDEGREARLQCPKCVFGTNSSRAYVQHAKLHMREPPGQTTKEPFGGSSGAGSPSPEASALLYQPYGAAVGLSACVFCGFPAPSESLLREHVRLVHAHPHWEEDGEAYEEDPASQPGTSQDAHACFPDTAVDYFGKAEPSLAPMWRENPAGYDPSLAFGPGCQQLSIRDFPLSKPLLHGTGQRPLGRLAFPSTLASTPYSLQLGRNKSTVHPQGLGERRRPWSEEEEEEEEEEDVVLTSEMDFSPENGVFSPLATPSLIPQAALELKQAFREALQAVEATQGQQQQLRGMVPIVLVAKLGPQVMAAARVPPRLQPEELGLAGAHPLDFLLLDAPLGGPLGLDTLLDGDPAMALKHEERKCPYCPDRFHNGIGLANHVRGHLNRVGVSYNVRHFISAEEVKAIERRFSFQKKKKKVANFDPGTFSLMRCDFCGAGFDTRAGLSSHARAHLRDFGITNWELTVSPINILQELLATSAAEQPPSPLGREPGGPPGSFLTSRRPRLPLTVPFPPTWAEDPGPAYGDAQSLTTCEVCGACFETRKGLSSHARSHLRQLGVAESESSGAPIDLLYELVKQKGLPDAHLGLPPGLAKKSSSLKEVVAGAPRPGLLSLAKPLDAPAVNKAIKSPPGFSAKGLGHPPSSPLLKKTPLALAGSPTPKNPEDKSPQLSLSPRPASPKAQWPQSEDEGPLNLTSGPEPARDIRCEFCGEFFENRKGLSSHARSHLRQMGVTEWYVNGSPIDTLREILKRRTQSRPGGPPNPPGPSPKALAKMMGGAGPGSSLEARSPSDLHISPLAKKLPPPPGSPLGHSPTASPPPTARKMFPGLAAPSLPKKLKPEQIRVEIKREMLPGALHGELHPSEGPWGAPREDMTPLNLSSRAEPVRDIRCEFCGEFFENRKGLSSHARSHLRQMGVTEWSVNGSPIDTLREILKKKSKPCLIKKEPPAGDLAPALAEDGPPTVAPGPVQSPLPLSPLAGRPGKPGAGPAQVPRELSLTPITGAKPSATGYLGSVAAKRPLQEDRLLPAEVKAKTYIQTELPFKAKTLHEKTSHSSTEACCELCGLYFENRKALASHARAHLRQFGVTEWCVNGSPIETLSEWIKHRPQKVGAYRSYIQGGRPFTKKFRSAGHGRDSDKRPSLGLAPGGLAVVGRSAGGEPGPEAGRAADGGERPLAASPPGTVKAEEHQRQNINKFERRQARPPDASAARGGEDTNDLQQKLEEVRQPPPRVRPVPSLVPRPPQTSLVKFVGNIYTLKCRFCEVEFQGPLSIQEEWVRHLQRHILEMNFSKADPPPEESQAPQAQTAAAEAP
WIZ (Widely interspaced zinc finger), sequence (Q96SW2 whole entry): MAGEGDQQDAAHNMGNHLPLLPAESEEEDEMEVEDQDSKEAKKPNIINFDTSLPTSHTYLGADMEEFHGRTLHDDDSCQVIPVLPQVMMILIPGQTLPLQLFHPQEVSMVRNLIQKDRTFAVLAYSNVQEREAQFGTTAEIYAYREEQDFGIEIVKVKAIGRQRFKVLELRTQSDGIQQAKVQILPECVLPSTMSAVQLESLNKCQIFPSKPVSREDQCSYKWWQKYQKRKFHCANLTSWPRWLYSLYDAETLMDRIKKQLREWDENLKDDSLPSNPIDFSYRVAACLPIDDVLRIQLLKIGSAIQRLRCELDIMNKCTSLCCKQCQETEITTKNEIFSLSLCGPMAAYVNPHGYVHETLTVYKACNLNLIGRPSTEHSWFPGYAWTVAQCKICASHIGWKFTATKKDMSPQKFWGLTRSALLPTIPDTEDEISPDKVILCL
WIZ (Widely interspaced zinc finger), sequence (Q16531 whole entry partner): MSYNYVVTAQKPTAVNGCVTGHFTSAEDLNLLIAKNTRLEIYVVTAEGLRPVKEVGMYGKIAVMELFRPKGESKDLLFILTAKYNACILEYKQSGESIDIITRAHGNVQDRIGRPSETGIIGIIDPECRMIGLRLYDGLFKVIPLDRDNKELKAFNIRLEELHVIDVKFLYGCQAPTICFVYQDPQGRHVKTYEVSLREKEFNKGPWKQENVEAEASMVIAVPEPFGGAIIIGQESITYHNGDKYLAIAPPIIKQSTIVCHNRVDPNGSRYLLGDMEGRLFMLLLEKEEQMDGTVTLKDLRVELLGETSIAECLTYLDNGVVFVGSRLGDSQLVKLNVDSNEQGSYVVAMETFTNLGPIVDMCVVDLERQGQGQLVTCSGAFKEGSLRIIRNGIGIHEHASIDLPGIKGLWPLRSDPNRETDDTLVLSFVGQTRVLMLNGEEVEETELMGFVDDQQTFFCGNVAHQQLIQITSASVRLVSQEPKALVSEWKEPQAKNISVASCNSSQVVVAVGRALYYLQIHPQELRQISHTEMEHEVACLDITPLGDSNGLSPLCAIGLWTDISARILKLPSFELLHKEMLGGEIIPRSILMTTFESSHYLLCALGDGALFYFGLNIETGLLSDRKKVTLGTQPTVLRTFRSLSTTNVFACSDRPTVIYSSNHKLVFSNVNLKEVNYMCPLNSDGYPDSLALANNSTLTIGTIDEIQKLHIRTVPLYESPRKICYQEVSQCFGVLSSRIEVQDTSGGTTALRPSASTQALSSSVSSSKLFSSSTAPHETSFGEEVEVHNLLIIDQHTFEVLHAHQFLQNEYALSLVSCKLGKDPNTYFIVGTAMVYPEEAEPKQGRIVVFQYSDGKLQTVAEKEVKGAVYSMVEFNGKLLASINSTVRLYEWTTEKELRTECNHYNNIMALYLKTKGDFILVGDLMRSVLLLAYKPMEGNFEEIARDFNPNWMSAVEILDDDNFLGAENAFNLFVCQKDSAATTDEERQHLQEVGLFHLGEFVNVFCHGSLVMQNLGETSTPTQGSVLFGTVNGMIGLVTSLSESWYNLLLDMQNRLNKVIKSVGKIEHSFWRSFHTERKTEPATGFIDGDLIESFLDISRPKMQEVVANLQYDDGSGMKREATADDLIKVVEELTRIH
Summary of the method: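 HiBiT-tagged WIZ HUDEP-2 cells were seeded at 1.0×10^6 cells/ml in supplemented StemSpan SFEM II with doxycycline and treated 24 h at 37 °C. Remaining tagged protein was read by Nano-Glo HiBiT lytic luminescence. EC50 and Y-min were fitted after DMSO normalization across 10 concentrations, 10 to 0.0005 μM.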

[3] = biological target: ZBTB7A (Zinc Finger And BTB Domain Containing 7A) (Homo sapiens (Human), UniProt O95365+Q96SW2); assay: HUDEP-2 ZBTB7A HiBiT degradation assay; details: HUDEP-2 ZBTB7A HiBiT cells, 24 hours treatment, luminescence; for DC50: read-out: ZBTB7A EC50
ZBTB7A (Zinc Finger And BTB Domain Containing 7A), sequence (O95365 whole entry, the tested form may be a part): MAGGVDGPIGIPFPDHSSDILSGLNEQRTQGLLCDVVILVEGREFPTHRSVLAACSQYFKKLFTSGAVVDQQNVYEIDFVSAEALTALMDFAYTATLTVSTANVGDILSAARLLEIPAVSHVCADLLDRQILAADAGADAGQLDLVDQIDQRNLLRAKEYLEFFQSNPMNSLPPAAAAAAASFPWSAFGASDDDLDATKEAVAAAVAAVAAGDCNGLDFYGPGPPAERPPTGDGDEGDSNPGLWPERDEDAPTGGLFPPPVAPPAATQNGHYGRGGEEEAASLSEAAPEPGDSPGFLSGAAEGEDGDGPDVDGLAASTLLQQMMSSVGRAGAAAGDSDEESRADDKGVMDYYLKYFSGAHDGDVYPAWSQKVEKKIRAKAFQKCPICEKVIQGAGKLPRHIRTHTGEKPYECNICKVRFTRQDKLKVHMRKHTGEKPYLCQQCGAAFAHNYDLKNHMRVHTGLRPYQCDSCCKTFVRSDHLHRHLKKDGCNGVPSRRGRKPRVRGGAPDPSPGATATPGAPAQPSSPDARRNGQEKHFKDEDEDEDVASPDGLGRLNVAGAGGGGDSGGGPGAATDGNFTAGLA
ZBTB7A (Zinc Finger And BTB Domain Containing 7A), sequence (Q96SW2 whole entry, the tested form may be a part): as the sequence (Q96SW2 whole entry) above
ZBTB7A (Zinc Finger And BTB Domain Containing 7A), sequence (Q16531 whole entry partner, the tested form may be a part): as the sequence (Q16531 whole entry partner) above
Summary of the method: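 HUDEP-2 cells carrying HiBiT-tagged ZBTB7A, grown 48 h in IMDM with EPO, SCF, insulin, transferrin, heparin, dox and 5% human plasma, then seeded at 1.0×10^6 cells/ml on pre-dispensed compound (10 concentrations, 10–0.0005 μM) for 24 h at 37 °C. Lytic HiBiT luminescence, DMSO-normalised, gave EC50 and Y-min.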

SMILES	activation at 1 µM [1]	DC50 [2]	DC50 [3]	EC50 [3]	EC50 [2]
Cc1cc(-c2cc3cnn(C)c3cc2Nc2cccc3c2C(=O)N(C2CCC(=O)NC2=O)C3=O)ccn1 (stereo not drawn) [Compound 7, 2-(2,6-dioxopiperidin-3-yl)-4-((1-methyl-5-(2-methylpyridin-4-yl)-1H-indazol-6-yl)amino)isoindoline-1,3-dione]	66 to 100%	0.01 to 0.1 µM	0.03 to 0.1 µM	–	–
Cc1cc(-c2cc3c(cc2Nc2cccc4c2C(=O)N(C2CCC(=O)NC2=O)C4=O)nc(C)n3C)ccn1 (stereo not drawn) [Compound 23, 4-((1,2-dimethyl-6-(2-methylpyridin-4-yl)-1H-benzo[d]imidazol-5-yl)amino)-2-(2,6-dioxopiperidin-3-yl)isoindoline-1,3-dione]	33 to 66%	> 0.1 µM	–	> 0.1 µM	–
Cc1cccc(F)c1Oc1ccc2c(cnn2C)c1Nc1cccc2c1C(=O)N(C1CCC(=O)NC1=O)C2=O (stereo not drawn) [Compound 6, 2-(2,6-dioxopiperidin-3-yl)-4-((5-(2-fluoro-6-methylphenoxy)-1-methyl-1H-indazol-4-yl)amino)isoindoline-1,3-dione]	66 to 100%	–	0.03 to 0.1 µM	–	< 0.01 µM
Cn1ncc2cc(Nc3cccc4c3C(=O)N(C3CCC(=O)NC3=O)C4=O)c(C3CCOCC3)cc21 (stereo not drawn) [Compound 22, 2-(2,6-dioxopiperidin-3-yl)-4-((1-methyl-6-(tetrahydro-2H-pyran-4-yl)-1H-indazol-5-yl)amino)isoindoline-1,3-dione]	33 to 66%	0.01 to 0.1 µM	–	> 0.1 µM	–
Cc1nccc(-c2cc3c(cc2Nc2cccc4c2C(=O)N(C2CCC(=O)NC2=O)C4=O)N(C)C(=O)CC3)c1Cl (stereo not drawn) [Compound 47, 4-((6-(3-chloro-2-methylpyridin-4-yl)-1-methyl-2-oxo-1,2,3,4-tetrahydroquinolin-7-yl)amino)-2-(2,6-dioxopiperidin-3-yl)isoindoline-1,3-dione]	66 to 100%	–	–	< 0.03 µM	< 0.01 µM
Cc1cc(-c2cc3c(cnn3C3CCOCC3)cc2Nc2cccc3c2C(=O)N(C2CCC(=O)NC2=O)C3=O)ccn1 (stereo not drawn) [Compound 4, 2-(2,6-dioxopiperidin-3-yl)-4-((6-(2-methylpyridin-4-yl)-1-(tetrahydro-2H-pyran-4-yl)-1H-indazol-5-yl)amino)isoindoline-1,3-dione]	66 to 100%	0.01 to 0.1 µM	0.03 to 0.1 µM	–	–
CN(C)CCOc1cc(Oc2ccccc2)c(Nc2cccc3c2C(=O)N(C2CCC(=O)NC2=O)C3=O)cn1 (stereo not drawn) [Compound 9, 4-((6-(2-(dimethylamino)ethoxy)-4-phenoxypyridin-3-yl)amino)-2-(2,6-dioxopiperidin-3-yl)isoindoline-1,3-dione]	66 to 100%	–	0.03 to 0.1 µM	–	< 0.01 µM
Cc1cc(-c2cc3nc(C)n(C)c3cc2Nc2cccc3c2C(=O)N(C2CCC(=O)NC2=O)C3=O)ccn1 (stereo not drawn) [Compound 1, 4-((1,2-dimethyl-5-(2-methylpyridin-4-yl)-1H-benzo[d]imidazol-6-yl)amino)-2-(2,6-dioxopiperidin-3-yl)isoindoline-1,3-dione]	66 to 100%	0.01 to 0.1 µM	< 0.03 µM	–	–
Cn1ncc2cc(Oc3ccccc3)c(Nc3cccc4c3C(=O)N(C3CCC(=O)NC3=O)C4=O)cc21 (stereo not drawn) [Compound 27, 2-(2,6-dioxopiperidin-3-yl)-4-((1-methyl-5-phenoxy-1H-indazol-6-yl)amino)isoindoline-1,3-dione]	< 33%	0.01 to 0.1 µM	–	> 0.1 µM	–
Cc1cc(-c2cc3c(cnn3[C@@H]3CCOC3)cc2Nc2cccc3c2C(=O)N([C@@H]2CCC(=O)NC2=O)C3=O)ccn1 [Compound 52, 2-((R)-2,6-dioxopiperidin-3-yl)-4-((6-(2-methylpyridin-4-yl)-1-((R)-tetrahydrofuran-3-yl)-1H-indazol-5-yl)amino)isoindoline-1,3-dione]	66 to 100%	–	–	> 0.1 µM	< 0.01 µM
Cc1nccc(-c2cc3c(cnn3C)cc2Nc2cccc3c2C(=O)N(C2CCC(=O)NC2=O)C3=O)c1C (stereo not drawn) [Compound 29, 4-((6-(2,3-dimethylpyridin-4-yl)-1-methyl-1H-indazol-5-yl)amino)-2-(2,6-dioxopiperidin-3-yl)isoindoline-1,3-dione]	< 33%	0.01 to 0.1 µM	–	> 0.1 µM	–
Cc1cc(-c2cc3c(cnn3C)cc2Nc2cccc3c2C(=O)N(C2CCC(=O)NC2=O)C3=O)cnn1 (stereo not drawn) [Compound 24, 2-(2,6-dioxopiperidin-3-yl)-4-((1-methyl-6-(6-methylpyridazin-4-yl)-1H-indazol-5-yl)amino)isoindoline-1,3-dione]	33 to 66%	> 0.1 µM	–	> 0.1 µM	–
Cc1csc(-c2cc3c(cc2Nc2cccc4c2C(=O)N(C2CCC(=O)NC2=O)C4=O)N(C)C(=O)CC3)n1 (stereo not drawn) [Compound 39, 2-(2,6-dioxopiperidin-3-yl)-4-((1-methyl-6-(4-methylthiazol-2-yl)-2-oxo-1,2,3,4-tetrahydroquinolin-7-yl)amino)isoindoline-1,3-dione]	33 to 66%	0.01 to 0.1 µM	0.03 to 0.1 µM	–	–
Cc1cc(-c2cc3c(cnn3C)cc2Nc2cccc3c2C(=O)N([C@H]2CCC(=O)NC2=O)C3=O)ccn1 [Compound 42, (S)-2-(2,6-dioxopiperidin-3-yl)-4-((1-methyl-6-(2-methylpyridin-4-yl)-1H-indazol-5-yl)amino)isoindoline-1,3-dione]	33 to 66%	> 0.1 µM	0.03 to 0.1 µM	–	–
COc1ccc(-c2cc3ncn(C)c3cc2Nc2cccc3c2C(=O)N(C2CCC(=O)NC2=O)C3=O)cc1F (stereo not drawn) [Compound 5, 2-(2,6-dioxopiperidin-3-yl)-4-((5-(3-fluoro-4-methoxyphenyl)-1-methyl-1H-benzo[d]imidazol-6-yl)amino)isoindoline-1,3-dione]	66 to 100%	0.01 to 0.1 µM	0.03 to 0.1 µM	–	–
Cc1cc(-c2cc3c(cc2Nc2cccc4c2C(=O)N([C@H]2CCC(=O)NC2=O)C4=O)N(C)C(=O)CC3)ccn1 [Compound 32, (S)-2-(2,6-dioxopiperidin-3-yl)-4-((1-methyl-6-(2-methylpyridin-4-yl)-2-oxo-1,2,3,4-tetrahydroquinolin-7-yl)amino)isoindoline-1,3-dione]	66 to 100%	–	0.03 to 0.1 µM	–	< 0.01 µM
O=C1CCC(N2C(=O)c3cccc(Nc4c(Oc5ccccc5Cl)ccc5c4cnn5C4CCOCC4)c3C2=O)C(=O)N1 (stereo not drawn) [Compound 13, 4-((5-(2-chlorophenoxy)-1-(tetrahydro-2H-pyran-4-yl)-1H-indazol-4-yl)amino)-2-(2,6-dioxopiperidin-3-yl)isoindoline-1,3-dione]	66 to 100%	0.01 to 0.1 µM	0.03 to 0.1 µM	–	–
